Source: patent US11986458B1, “Natural and synthetic andrographolides compounds for the treatment of skeletal muscular dystrophies” (Innobiosciences LLC, priority 2018, dated 2024)

Key:
mdx mice [1] = test: Isometric force of isolated muscles from treated exercised mdx mice; type: in vivo, mouse; details: treadmill exercise, andrographolide 1.0 mg/kg/day ip, prednisone 5 mg/kg, single electro-stimulation and high frequency stimulation
Method: We used 12-week-old control or mdx male mice of the C57BL/10 ScSn strain. The animals were kept at room temperature with a 24-hour night-day cycle and were fed with pellets and water ad libitum. Experimental exercise involved running the mice on a treadmill three times per week for 30 minutes each session at 12 m/minute over three or four months. […]
The isometric force of isolated muscles was measured as described previously. Briefly, optimum muscle length (Lo) and stimulation voltage were determined from micromanipulation of muscle length to produce maximum isometric twitch force. Maximum isometric tetanic force (Po) was determined from the plateau of the frequency-force relationship after successive stimulations at 1 to 200 Hz for 450 ms, with 2-minute rests between stimuli. […]

mdx mice [2] = test: Skeletal muscle histology (H&E) and collagen type I indirect immunofluorescence, tibialis anterior of mdx mice; type: in vivo, mouse; details: 3 months administration; for damaged areas in muscle, Hematoxylin and Eosin staining: tibialis anterior, compared to vehicle-treated mdx mice
Method: We used 12-week-old control or mdx male mice of the C57BL/10 ScSn strain. The animals were kept at room temperature with a 24-hour night-day cycle and were fed with pellets and water ad libitum. Experimental exercise involved running the mice on a treadmill three times per week for 30 minutes each session at 12 m/minute over three or four months. See Morales, MG. et al., Reducing CTGF/CCN2 Slows Down MDX Muscle Dystrophy And Improves Cell Therapy, 22 Hum Mol Genet 4938 (2013), DeLuca, A. et al., Enhanced Dystrophic Progression In MDX Mice By Exercise And Beneficial Effects Of Taurine And Insulin-Like Growth Factor-1, 304 J Pharmacol Exp Ther 453 (2003), DeLuca, A. et al., A Multidisciplinary Evaluation Of The Effectiveness Of Cyclosporine A In Dystrophic MDX Mice, 166 Am J Pathol 477 (2005), Cabello-Verrugio, C. et al., Angiotensin II Receptor Type 1 Blockade CTGF/CCN2-Mediated Damage And Fibrosis In Normal And Dytrophic Skeletal Muscles, 16 J Cell Mol Med 752 (2012). Four experimental groups were designed: animals in the first group were injected intraperitoneally (ip) with andrographolide (1.0 mg/kg/day). Animals in the second group were treated with prednisone (5 mg/kg). Third group, animals were treated with prednisone together with andrographolide. Fourth group animals were injected with saline. At the end of the experiment the muscles were dissected and removed under anesthesia (isofluorane gas) and then the animals were sacrificed. Tissues were used for electrophysiological measurement or rapidly frozen and stored at −80° C. until processing. All protocols were conducted in strict accordance with guidelines and with the formal approval of the Animal Ethics Committee of the Pontificia Universidad Católica de Chile.
Architecture and histology were detected by hematoxylin-eosin (H&E) stain in transverse sections of muscle. See Morales, MG. et al., CTGF/CCN-2 Over-Expression Can Directly Induce Features Of Skeletal Muscle Dystrophy, 225 J Pathol 490 (2011). Collagen Type I was determined as described in Morales, MG. et al., Reducing CTGF/CCN2 Slows Down MDX Muscle Dystrophy And Improves Cell Therapy, 22 Hum Mol Genet 4938 (2013).
Tissue samples evaluated using collagen type I immuno-staining. […] We posit that this prevents tissue damage in mdx mice.

DMD = details: glucocorticoids such as prednisone; cited from earlier work
mdx mice [3] = test: Life expectancy / survival of mdx mice under life-long treatment; type: in vivo, mouse
Method: Groups of mdx mice were treated with or without andrographolide (1.0 mg/kg/day) 3 times per weeks starting at one month old until they die naturally. The animals were maintained under free food and water access all the time. Days of death was recorded.
To evaluate whether andrographolide affects survival in dystrophic mice we perform a long term treatment with andrographolide through intra-peritoneal injections, three times per weeks starting at one month old until they die naturally, in order to determine the effects over life expectancy in mdx mice.

[4] = tested on: patients with Duchenne Muscular Dystrophy; test: PedsQL for Duchenne Muscular Dystrophy Module questionnaire in pediatric DMD patients; type: in vivo, human; details: 70 mg orally twice per day
Method: Thirteen pediatric patients were derived from the Chilean Duchenne Association with confirmed clinical diagnostic. Of the thirteen patients, seven of them used chronic glucocorticoid treatment (Table A). Two of the patients had disease advanced enough so that the patients were no longer ambulatory.
All patients, both those treated with glucocorticoid and those not requiring glucocorticoid, received 70 mg andrographolide (as a standardized extract) orally two times per day. Treatment periods ranged from one month to more than twelve months. […] (Table B)
Thirteen (13) children with DMD of different ages (ranging from 4 to 14 years old) were treated with Andrographis paniculata capsules (either taking corticosteroids or not) for a variable period of time (ranging from one month to two years) (Table A).
Each parent or tutor received a questionnaire with different scores parameters to be completed. The parents were asked to fill out the Pediatric Quality of Life Inventory TM questionnaire (PedsQL for Duchenne Muscular Dystrophy Module) of their perception about; Quality of life, Sleep, Pain, Cold, Walk/Move, Play/Run, Jump, Coordination, Force and Mood of children during Andrographis paniculata treatment (Table B).

mdx mouse = details: cited from earlier work
CTGF = details: in vitro (skeletal cells); cited from earlier work
MES-13 cells = details: cited from earlier work; for intracellular oxidative states: high glucose cultured MES-13 cells
[5] = tested on: cholestasis-induced apoptosis; details: in vivo; cited from earlier work
dystrophin [6] = details: mdx mice; cited from earlier work
dystrophin [7] = details: cited from earlier work
[8] = 12 DMD patients over a six-month period

## C[C@]12C=CC(=O)C=C1CC[C@@H]1[C@@H]2C(=O)C[C@@]2(C)[C@H]1CC[C@]2(O)C(=O)CO [prednisone, reference compound]
Mdx mice [1]
  isolated muscle strength (maximal switch force and tetanic contraction): improved muscle contraction
Mdx mice [2]
  fibrosis, collagen type I immuno-staining: diminish fibrosis
  damaged areas in muscle, Hematoxylin and Eosin staining: prevented the increase of damaged areas
DMD
  side effects: severe side effects

## C=C1CC[C@@H]2[C@](C)(CO)[C@H](O)CC[C@@]2(C)[C@@H]1C/C=C1/C(=O)OC[C@H]1O [andrographolide, 3-[2-[Decahydro-6-hydroxy-5-(hydroxymethyl)-5,8a-dimethyl-2-methylene-1-napthalenyl]ethylidene]dihydro-4-hydroxy-2(3H)-furanone]
Mdx mice [1]
  isolated muscle strength (maximal switch force and tetanic contraction): improved muscle contraction at similar levels than the induced by prednisone
Mdx mice [2]
  fibrosis, collagen type I immuno-staining: diminish fibrosis
  damaged areas in muscle, Hematoxylin and Eosin staining: prevented the increase of damaged areas
Mdx mice [3]; mdx mice, 1.0 mg/kg/day ip three times per week from one month old until natural death, n=6
  total life expectancy: around 21.7±2.35 months
Mdx mice [3]; versus vehicle-treated mdx mice
  increase of life expectancy of dystrophic mice: 15%
[4]; 13 DMD patients
  improvement in quality of life, quality of sleep, pain, colds, coordination, force and mood: important improvement
[4]; all 13 DMD patients, one month to more than twelve months
  overall effect on PedsQL parameters: slight to important improvement
Mdx mouse; animal model of DMD, the mdx mouse
  muscle associated fibrosis: significantly reduces muscle associated fibrosis
Mdx mouse; mdx mouse
  exercise resistance in dystrophic mice: increase exercise resistance
  skeletal muscle force in dystrophic muscles: increase
CTGF
  expression of pro-fibrotic factor CTGF: able to inhibit
MES-13 cells; MES-13 cells
  phenotypes indicating diabetic nephropathy: reduced the phenotypes indicating diabetic nephropathy
MES-13 cells
  antioxidant ability in a cellular environment: do not have antioxidant ability
  intracellular oxidative states: reduced intracellular oxidative states
[5]
  protection against cholestasis-induced apoptosis: potent protector

## gentamicin
Dystrophin [6]
  dystrophin expression in muscle fibers above normal levels: 20%
Dystrophin [7]; [8]
  clinical benefits: no clinical benefits were observed
  patients with dystrophin expression detected: 6 of the 12
Dystrophin [7]; one of the studies on DMD patients
  muscle strength and re-expression of dystrophin in muscles: beneficial effect on muscle strength and a re-expression of dystrophin in muscles

## C=C1CCC2C(C)(CO)C(O)CCC2(C)C1C=CC1=CCOC1=O (stereo not drawn) [AP2, 14-deoxy-11,12-didehydro-andrographolide]
MES-13 cells; MES-13 cells, comparison AP2 vs AP1
  reduction of apoptosis marker caspase-3, fibrosis marker TGF-β1, and PAI-1: more potent activity than AP1
MES-13 cells; MES-13 cells
  phenotypes indicating diabetic nephropathy: reduced the phenotypes indicating diabetic nephropathy
MES-13 cells
  antioxidant ability in a cellular environment: do not have antioxidant ability
  intracellular oxidative states: reduced intracellular oxidative states
